# Values quoted from earlier work as cited in patent US20080147019A1, “Antimicrobial component system containing metallic nanoparticles and chitosan and/or its derivatives” (Kimberly-Clark Worldwide, Inc., priority 2006, published 2008).
# System: bacteria (gram+ and gram−), as well as fungi (molds and yeasts)
# Details: very low doses, as low as about
smiles,measurement,value
"[Ag+] [Ionic silver, Ionic silver (Ag+)]",dose at which antimicrobial (oligodynamic),0.001-0.05 ppm
